According to patent US20230134760A1, “CAR AND NRF2 DUAL ACTIVATOR AGENTS FOR CYCLOPHOSPHAMIDE-BASED AND DOXORUBICIN-BASED TREATMENTS OF CANCER” (priority 2020, published 2023):

Tests used:
HO-1 = HO-1 expression in BT549 cells; format: cell-based; conditions: BT549, 10 μM, 24 hours
Description: Immortalized triple negative breast cancer cell lines MDA-MB-231 and BT549 were obtained from ATCC (Rockville, Md.). Additionally, the h9c2 cell line was purchased from ATCC (Rockville, Md.). […] Human iPSC-derived cardiomyocytes were maintained in Mtesr plus and supplemented according to protocol. These cells were treated for 2 hrs or an overnight as indicated. Following a 2 hr pretreatment, cells were co-treated with DOX at indicated concentrations for 6 or 22 hours. Following the overnight treatments, RNA or protein was isolated. HPH were seeded in collagen-coated 24 well plates and pretreated for 24 hrs. BT549 were seeded on inverted coverslips. After a 24 hr pretreatment, hepatocytes were co-administered as indicated and coverslips were inserted. The cell lines were used for less than 60 passages. After 24 h treatment, HPH, BT549, MDA-MB-231, and H9c2 cells were washed and a phenol-chloroform extraction was used to isolate total RNA with the TRIzol reagent (ThermoFisher, Rockford, Ill.). Reverse transcription was performed on extracted RNA (1 μg) to produce cDNA using the High Capacity cDNA Archive kit according to manufacturer's instructions (Applied Biosystems, Foster, Calif.). […] Quantification of expression changes was done by the 2^ΔΔCt method, normalizing to GAPDH as the housekeeping gene and determining the fold change compared to control values (n=3). […]

HPH/BT549 coculture = assay: LC-MS/MS determination of 4-OH-CPA formation in HPH/BT549 coculture medium; format: cell-based, human; conditions: DL7076 10 μM
Description: During the pre-treatment time, BT549 cells were seeded at 0.8×10^5 on collagen-coated coverslips modified to have their corners bent (FIG. 40a). […] 200 μL of cell culture medium was removed from each treatment group was immediately mixed with 20 μL of semicarbazide (SCZ; 2M) to stabilize 4-OH-CPA to its derivative 4-OH-CPA-SCZ. Once removed, samples were vortexed and left at room temperature for 10 minutes. 2 μM HMP was added as an internal standard and 200 μL acetonitrile was used to precipitate protein. Mass transitions were monitored at m/z: 261-140 for CPA, m/z: 334-221 for 4-OH-CPA-SCZ, and m/z: 180-135 for HMP under the positive multiple reaction monitoring mode.

cleaved caspase-3 = assay: Cleaved caspase-3 Western blot in H9c2 cardiomyocytes; format: cell-based, rat
Description: Protein was harvested using cell lysis buffer (Cell Signaling Technology, Danvers, Mass.) with a complete protease inhibitor cocktail (Roche, Mannheim, Germany) prior to homogenizing via sonification. Homogenized protein from treated HPH, H9c2, BT549, and MDA-MB-231 cells were resolved on NuPage Novex Bis-Tris 4-12% gels (Life Technologies) or NuPage Novex Bis-Tris 12% gel and transferred through electrophoresis onto immobilon-P polyvinylidene difluoride (PVDF) membranes. Membranes were blocked with 5% BSA or 5% milk in Tris-Buffer saline with Tween 20 (TBST). Further, membranes were incubated with specific antibodies against human CYP2B6 (1:1000, Abcam), CYP3A4 (1:1000, Millipore Sigma), HO-1 (1:1000, Abcam), cleaved caspase-3 (1:1000 Cell Signaling Technologies), Nrf2 (1:1000, Abcam), TATA-Binding Protein (1:500, Santa Cruz) β-actin (1:3000, Millipore Sigma) at 4° C. overnight. Following overnight incubation, horseradish peroxidase goat anti-mouse or anti-rabbit IgG antibodies were used for secondary incubation. Membranes were developed using SuperSignal West Pico Chemiluminescent Substrate (Thermo Scientific) or Radiance Q (Azure). Two TNBC cell lines, cardiomyocytes, and HPH protein samples were isolated and resolved on a 4-12% or 12% SDS PAGE gel followed by electrophoretic transfer to a PVDF membrane. Membranes were probed 1:1000 for CYP2B6, CYP3A4, Nrf2, cleaved caspase 3, and HO-1 using β-actin (1:3000) or TBP (1:500) as a loading control.

hCAR = assay: Ad/EYFP-hCAR translocation assay in HPH; format: cell-based, human; conditions: Ad-EYFP-hCAR-infected HPH; DL7076 10 μM, PB 1 mM
Description: HPH were seeded on collagen-coated 12-well plates. 24 hours after seeding, HPH were infected with Ad/EYFP-hCAR at a concentration of 5 μL/mL of media and incubated overnight. HPH infected cells were treated with a vehicle control (DMSO 0.01%), a positive control (1 mM PB), and compounds of interest for 8 h. Fluorescence was viewed using the YFP channel (Nikon Eclipse Ti) and quantified by identifying the number of total cells expressing EYFP-hCAR over EYFP-hCAR present in the nucleus. Representative images are shown, and quantitative data represents the mean±SD of 3 individual images for each treatment group.

[1] = test system: iPSC-derived cardiomyocytes; assay: Cell viability, DOX-induced cytotoxicity in iPSC-derived cardiomyocytes; format: cell-based, human; conditions: co-administration with DOX
Description: Immortalized triple negative breast cancer cell lines MDA-MB-231 and BT549 were obtained from ATCC (Rockville, Md.). Additionally, the h9c2 cell line was purchased from ATCC (Rockville, Md.). […] Human iPSC-derived cardiomyocytes were maintained in Mtesr plus and supplemented according to protocol. These cells were treated for 2 hrs or an overnight as indicated. Following a 2 hr pretreatment, cells were co-treated with DOX at indicated concentrations for 6 or 22 hours. Following the overnight treatments, RNA or protein was isolated. HPH were seeded in collagen-coated 24 well plates and pretreated for 24 hrs. BT549 were seeded on inverted coverslips. After a 24 hr pretreatment, hepatocytes were co-administered as indicated and coverslips were inserted. The cell lines were used for less than 60 passages. H9c2 cells were seeded 0.8×10^5 in 24-well plates. […] A Cell Counting Kit-8 (Enzo) assay was carried out. Cell viability was described as a percent of vehicle control (0.1% DMSO).

O=C(NCCN=C=S)c1c(-c2ccc3ccccc3c2)nc2sccn12 [DL7076, N-(2-Isothiocyanatoethyl)-6-(naphthalen-2-yl)imidazo[2,1-b]thiazole-5-carboxamide]
HO-1 induction (HO-1): 1.5 fold
rate and extent of CPA biotransformation to 4-OH-CPA (HPH/BT549 coculture; coculture medium): increased rate and extent of CPA biotransformed
4-OH-CPA formation (HPH/BT549 coculture; fixed CPA 500 μM, 2 to 24 hours): enhanced 4-OH-CPA formation in the coculture medium at all time points
cleaved caspase-3 expression with pretreatment (cleaved caspase-3; H9c2, DL7076 pretreatment + DOX 2.5 μM): notably reduced in a concentration dependent manner
cleaved caspase-3 expression, compound alone (cleaved caspase-3; H9c2, without DOX): no expression in cleaved caspase-3
EYFP-hCAR nuclear translocation (hCAR): triggered hCAR nuclear translocation
reversal of DOX-induced cytotoxicity [1]: efficiently reversed by co-administration of DL7076
